According to US20130035326A1 (AMBIT BIOSCIENCES CORPORATION, priority 2009, published 2013):
pIC50, pKd: −log10 of the molar value.

What was measured:
FLT3 kinase = biological target: T1, FLT3 kinase (Homo sapiens, UniProt P36888); assay: Competition binding assay, FLT3 Kd
T1 construct: made in house; host or cells: T7 phage display or HEK-293 cells
T1 sequence (P36888 27-993): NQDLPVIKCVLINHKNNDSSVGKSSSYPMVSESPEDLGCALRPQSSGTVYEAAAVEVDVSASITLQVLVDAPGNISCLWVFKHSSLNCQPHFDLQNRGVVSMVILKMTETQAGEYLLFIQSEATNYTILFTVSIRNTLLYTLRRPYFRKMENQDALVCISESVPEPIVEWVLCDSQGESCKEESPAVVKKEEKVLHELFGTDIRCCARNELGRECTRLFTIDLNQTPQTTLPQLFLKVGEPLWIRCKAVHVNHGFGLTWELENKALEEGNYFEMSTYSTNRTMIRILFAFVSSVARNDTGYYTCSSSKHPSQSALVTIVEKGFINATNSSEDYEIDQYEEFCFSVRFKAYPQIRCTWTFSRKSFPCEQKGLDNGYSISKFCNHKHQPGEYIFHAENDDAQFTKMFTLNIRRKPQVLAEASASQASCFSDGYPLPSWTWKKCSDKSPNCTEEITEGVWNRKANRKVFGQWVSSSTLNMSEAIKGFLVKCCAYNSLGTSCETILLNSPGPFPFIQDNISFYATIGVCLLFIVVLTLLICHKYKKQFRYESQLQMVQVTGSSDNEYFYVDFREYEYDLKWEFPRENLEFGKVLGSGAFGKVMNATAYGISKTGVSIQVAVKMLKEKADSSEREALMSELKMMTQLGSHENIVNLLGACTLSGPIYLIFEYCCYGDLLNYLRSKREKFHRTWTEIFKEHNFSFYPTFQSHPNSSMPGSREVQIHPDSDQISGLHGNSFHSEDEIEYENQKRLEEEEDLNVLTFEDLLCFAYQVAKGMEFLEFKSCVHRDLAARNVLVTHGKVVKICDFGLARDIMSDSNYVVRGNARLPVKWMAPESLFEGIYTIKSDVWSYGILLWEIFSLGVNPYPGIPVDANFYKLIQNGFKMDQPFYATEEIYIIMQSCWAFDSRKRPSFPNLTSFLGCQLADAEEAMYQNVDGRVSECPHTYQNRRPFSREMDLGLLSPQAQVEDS
Summary of the method: (§1)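 Kd values derived from an eleven-point, threefold compound dilution series in a bead-based competition format: kinase (phage-fused or HEK-293-derived with DNA tag), ligand-coated streptavidin beads and compound equilibrated 1 h at room temperature. After washing, retained kinase was eluted with non-biotinylated ligand (0.5 μM) and measured by quantitative PCR.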

KIT kinase = biological target: T2, KIT kinase (Homo sapiens, UniProt P10721); assay: Competition binding assay, KIT Kd
T2 construct: made in house; host or cells: T7 phage display or HEK-293 cells
Summary of the method: as §1

CSF-1R kinase = biological target: T3, CSF-1R kinase (Homo sapiens, UniProt P07333); assay: Competition binding assay, CSF-1R Kd
T3 construct: made in house; host or cells: T7 phage display or HEK-293 cells
Summary of the method: as §1

MV4-11 cells = assay: MV4-11 cell proliferation assay (Alamar Blue); type: cell-based; conditions: Homo sapiens, MV4-11, 72 h, 3 days incubation
Summary of the method: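 Flt3-ITD MV4-11 cells were serum-starved overnight in Iscove's with 0.5% FBS, then given compound at 9 half-log concentrations (0.5% DMSO) for 3 days at 37° C. Alamar Blue reduction was read after 3 h by fluorescence (560/590 nm). IC50 is the mean of duplicates versus negative control.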

[1] = biological target: kinase panel containing either 359 or 386 distinct kinases; assay: Selectivity score S10 from competition binding against a panel of kinases; conditions: compounds at 10 μM; for Kinase specificty: S(10)-386 panel: panel of 386 distinct kinases; for Kinase specificty: S(10)-359 panel: panel of 359 distinct kinases
Summary of the method: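 Compounds were tested at 10 μM in competition binding against T7 phage-fused or HEK-293-expressed DNA-tagged kinases with immobilized affinity ligands, 1 h at room temperature. Bound kinase was quantified by qPCR as percent of DMSO control; S10 is the fraction of distinct kinases (mutants excluded) with POC below 10.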

T3 sequence (P07333 20-972): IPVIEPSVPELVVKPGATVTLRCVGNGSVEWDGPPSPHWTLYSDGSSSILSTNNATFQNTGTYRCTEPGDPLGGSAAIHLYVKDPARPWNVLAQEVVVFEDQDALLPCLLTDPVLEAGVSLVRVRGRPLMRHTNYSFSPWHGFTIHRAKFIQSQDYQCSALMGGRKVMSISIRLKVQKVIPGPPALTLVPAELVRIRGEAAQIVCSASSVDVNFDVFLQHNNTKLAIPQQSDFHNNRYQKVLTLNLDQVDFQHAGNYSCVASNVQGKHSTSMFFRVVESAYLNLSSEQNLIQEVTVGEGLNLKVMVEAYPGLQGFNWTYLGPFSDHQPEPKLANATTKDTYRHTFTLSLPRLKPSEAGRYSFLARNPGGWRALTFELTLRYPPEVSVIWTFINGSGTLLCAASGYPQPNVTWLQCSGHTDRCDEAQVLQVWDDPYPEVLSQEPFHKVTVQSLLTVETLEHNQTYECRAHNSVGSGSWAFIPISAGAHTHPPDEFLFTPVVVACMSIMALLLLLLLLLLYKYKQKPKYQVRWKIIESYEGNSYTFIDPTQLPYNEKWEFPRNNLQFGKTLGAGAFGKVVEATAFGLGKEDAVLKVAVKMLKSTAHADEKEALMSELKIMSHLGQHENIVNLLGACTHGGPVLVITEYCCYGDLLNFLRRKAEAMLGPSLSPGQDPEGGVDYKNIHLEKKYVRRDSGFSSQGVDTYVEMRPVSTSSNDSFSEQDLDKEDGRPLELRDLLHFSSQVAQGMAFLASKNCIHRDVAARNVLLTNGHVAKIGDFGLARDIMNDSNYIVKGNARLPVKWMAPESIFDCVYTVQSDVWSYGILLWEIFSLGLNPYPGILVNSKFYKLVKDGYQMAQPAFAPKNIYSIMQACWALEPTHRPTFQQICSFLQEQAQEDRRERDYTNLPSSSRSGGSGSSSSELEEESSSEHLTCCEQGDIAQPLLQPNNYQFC
T2 sequence (P10721 26-976): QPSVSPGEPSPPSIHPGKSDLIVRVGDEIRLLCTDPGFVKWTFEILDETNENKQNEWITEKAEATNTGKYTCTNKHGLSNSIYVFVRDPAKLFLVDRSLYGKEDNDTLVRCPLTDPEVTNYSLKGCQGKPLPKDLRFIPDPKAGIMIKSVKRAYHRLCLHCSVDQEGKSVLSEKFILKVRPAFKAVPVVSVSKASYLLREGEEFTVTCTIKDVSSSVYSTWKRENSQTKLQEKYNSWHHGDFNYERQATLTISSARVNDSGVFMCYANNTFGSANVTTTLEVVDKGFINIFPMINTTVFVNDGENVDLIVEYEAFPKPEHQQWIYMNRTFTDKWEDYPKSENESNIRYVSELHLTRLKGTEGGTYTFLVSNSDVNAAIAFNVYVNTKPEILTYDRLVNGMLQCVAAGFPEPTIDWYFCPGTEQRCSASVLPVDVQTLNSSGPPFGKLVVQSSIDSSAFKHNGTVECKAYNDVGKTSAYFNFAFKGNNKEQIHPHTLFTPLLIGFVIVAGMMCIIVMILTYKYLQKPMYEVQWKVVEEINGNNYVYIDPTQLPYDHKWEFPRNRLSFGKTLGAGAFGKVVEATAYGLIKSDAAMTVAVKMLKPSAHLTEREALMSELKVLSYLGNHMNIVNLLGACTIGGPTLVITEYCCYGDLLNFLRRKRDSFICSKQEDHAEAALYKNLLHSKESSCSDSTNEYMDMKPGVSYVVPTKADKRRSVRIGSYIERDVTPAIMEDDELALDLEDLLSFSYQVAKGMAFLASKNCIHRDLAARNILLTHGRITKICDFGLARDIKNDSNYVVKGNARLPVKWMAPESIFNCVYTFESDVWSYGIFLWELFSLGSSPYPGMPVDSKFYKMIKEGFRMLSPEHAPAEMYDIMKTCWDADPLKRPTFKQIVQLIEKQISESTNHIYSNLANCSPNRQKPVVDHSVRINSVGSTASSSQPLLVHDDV

Compound | pKd (FLT3 kinase) | pKd (KIT kinase) | pKd (CSF-1R kinase) | pIC50 (MV4-11 cells) | Kinase specificty: S(10)-386 panel [1] | Kinase specificty: S(10)-359 panel [1]
O=C(Nc1ccc(-c2cnc(NCCN3CCOCC3)nc2)cc1)Nc1cccc(C(F)(F)F)c1 [Example 54, 1-(4-(2-(2-morpholinoethylamino)pyrimidin-5-yl)phenyl)-3-(3-(trifluoromethyl)phenyl)urea] | ≥ 9.00 | ≥ 9.00 | ≥ 8.00 | 7.00 to 8.00 |  | A (A≦0.1)
CC1(c2cc(NC(=O)Cc3ccc(-c4cnc(N)c(Cl)c4)cc3)no2)CC1 [Example 160] | ≥ 9.00 | ≥ 9.00 | ≥ 8.00 | ≥ 9.00 | B (0.1<B≦0.2 nM) | 
Nc1ccc(-c2ccc(CC(=O)Nc3cc(C4(C(F)(F)F)CC4)on3)cc2)cn1 [Example 73, 2-(4-(6-aminopyridin-3-yl)phenyl)-N-(5-(1-(trifluoromethyl)cyclopropyl)isoxazol-3-yl)acetamide] | ≥ 9.00 | 8.00 to 9.00 | ≥ 8.00 | ≥ 9.00 | A (A≦0.1) | 
CC(C)(F)c1cc(NC(=O)Cc2ccc(-c3ccc(N)nc3)cc2)on1.CS(=O)(=O)O [Example 101, 5-(4-(2-(3-(2-fluoropropan-2-yl)isoxazol-5-ylamino)-2-oxoethyl)phenyl)pyridin-2-aminium methanesulfonate] | ≥ 9.00 | ≥ 9.00 | ≥ 8.00 | 8.00 to 9.00 | A (A≦0.1) | 
CC(C)(C)c1cc(NC(=O)Cc2ccc(-c3ccc(N)nc3C#N)cc2)no1 [Example 166] | ≥ 9.00 | 8.00 to 9.00 | 7.00 to 8.00 | 7.00 to 8.00 | A (A≦0.1) | 
CC1(c2cc(NC(=O)Cc3ccc(-c4cnc(N)c(F)c4)cc3)no2)COC1.CS(=O)(=O)O [Example 146, 3-fluoro-5-(4-(2-((5-(3-methyloxetan-3-yl)isoxazol-3-yl)amino)-2-oxoethyl)phenyl)pyridin-2-aminium methanesulfonate] | ≥ 9.00 | ≥ 9.00 | ≥ 8.00 | 8.00 to 9.00 | A (A≦0.1) | 
Cc1cc(-c2ccc(CC(=O)Nc3cc(C4(C)CC4)on3)cc2)cnc1N [Example 158] | ≥ 9.00 | ≥ 9.00 | ≥ 8.00 | 8.00 to 9.00 | A (A≦0.1) | 
CC(C)(C)c1cc(NC(=O)Cc2ccc(-c3cnc4[nH]c(=O)[nH]c4c3)cc2)no1 [Example 147, N-(5-tert-butylisoxazol-3-yl)-2-(4-(2-oxo-2,3-dihydro-1H-imidazo[4,5-b]pyridin-6-yl)phenyl)acetamide] | 8.00 to 9.00 | 8.00 to 9.00 | ≥ 8.00 | ≥ 9.00 | B (0.1<B≦0.2 nM) | 
CC(C)(C)c1cc(NC(=O)Cc2ccc(-c3ccc(N)nc3F)cc2)no1.CS(=O)(=O)O [Example 95, 5-(4-(2-(5-tert-butylisoxazol-3-ylamino)-2-oxoethyl)phenyl)-6-fluoropyridin-2-aminium methanesulfonate] | ≥ 9.00 | 8.00 to 9.00 | ≥ 8.00 | ≥ 9.00 | A (A≦0.1) | 
CC(C)(C)c1cc(NC(=O)Cc2ccc(-c3ccc(NCCN4CCOCC4)nc3)cc2)no1.CS(=O)(=O)O [Example 105, 5-(4-(2-(5-tert-butylisoxazol-3-ylamino)-2-oxoethyl)phenyl)-N-(2-morpholinoethyl)pyridin-2-aminium methanesulfonate] | ≥ 9.00 | ≥ 9.00 | ≥ 8.00 | 8.00 to 9.00 | B (0.1<B≦0.2 nM) | 
CC(C)(C)c1cc(NC(=O)Nc2ccc(-c3cnc(NCCN4CCOCC4)nc3)cn2)no1 [Example 61, 1-(5-tert-butylisoxazol-3-yl)-3-{5-[2-(2-morpholin-4-yl-ethylamino)pyrimidin-5-yl]pyridin-2-yl}urea] | ≥ 9.00 | ≥ 9.00 | ≥ 8.00 | 7.00 to 8.00 |  | A (A≦0.1)
CC(C)(C)c1cc(NC(=O)Nc2ccc(-c3cnc4c(c3)CCCN4)cc2)no1 [Example 12, 1-(5-tert-butylisoxazol-3-yl)-3-(4-(5,6,7,8-tetrahydro-1,8-naphthyridin-3-yl)phenyl)urea] | 8.00 to 9.00 | 8.00 to 9.00 | ≥ 8.00 | 8.00 to 9.00 |  | A (A≦0.1)

Next, values leading:

pKd (FLT3 kinase) | pKd (KIT kinase) | pKd (CSF-1R kinase) | pIC50 (MV4-11 cells) | Kinase specificty: S(10)-386 panel [1] | Kinase specificty: S(10)-359 panel [1] | Compound
≥ 9.00 | 8.00 to 9.00 | ≥ 8.00 | ≥ 9.00 | B (0.1<B≦0.2 nM) |  | CS(=O)(=O)O.Cc1nc(-c2ccc(CC(=O)Nc3cc(C(C)(C)C)on3)cc2)cnc1N [Example 113, 5-(4-(2-(5-tert-butylisoxazol-3-ylamino)-2-oxoethyl)phenyl)-3-methylpyrazin-2-aminium methanesulfonate]
≥ 9.00 | 8.00 to 9.00 | ≥ 8.00 | ≥ 9.00 | B (0.1<B≦0.2 nM) |  | CC(F)(F)C1(c2cc(NC(=O)Cc3ccc(-c4ccc(N)nc4)cc3)no2)CC1 [Example 153]
≥ 9.00 | ≥ 9.00 | ≥ 8.00 | ≥ 9.00 |  | B (0.1<B≦0.2 nM) | CC(C)(C)c1cc(NC(=O)Nc2ccc(-c3ccc(N)nc3)cc2F)no1 [Example 14, 1-[4-(6-aminopyridin-3-yl)-2-fluorophenyl]-3-(5-tert-butylisoxazol-3-yl)-urea]
8.00 to 9.00 | 8.00 to 9.00 | ≥ 8.00 | < 6.30 |  | A (A≦0.1) | CC(C)(C)c1cc(NC(=O)Nc2ccc(-c3cnc(N)c(CO)c3)cc2)no1 [Example 8, 1-(4-(6-amino-5-(hydroxymethyl)pyridin-3-yl)phenyl)-3-(5-tert-butylisoxazol-3-yl)urea]
≥ 9.00 | 8.00 to 9.00 | ≥ 8.00 | ≥ 9.00 | B (0.1<B≦0.2 nM) |  | CC(C)(C)c1cc(NC(=O)Cc2ccc(-c3cnc(N)c(C(F)F)c3)cc2)no1 [Example 163]
≥ 9.00 | ≥ 9.00 | ≥ 8.00 | ≥ 9.00 | A (A≦0.1) |  | CC(=O)O.Nc1ccc(-c2ccc(CC(=O)Nc3cc(C4(CF)CC4)on3)cc2)cn1 [Example 103, 5-(4-(2-((5-(1-(fluoromethyl)cyclopropyl)isoxazol-3-yl)amino)-2-oxoethyl)phenyl)pyridin-2-aminium acetate]
≥ 9.00 | 8.00 to 9.00 | ≥ 8.00 | ≥ 9.00 |  | B (0.1<B≦0.2 nM) | CC(C)(C)c1cc(NC(=O)Nc2ccc(-c3cnc4c(c3)OCC(CCO)N4)cc2)no1 (stereo not drawn) [Example 5, 1-(5-tert-butylisoxazol-3-yl)-3-(4-(3-(2-hydroxyethyl)-3,4-dihydro-2H-pyrido[3,2-b][1,4]oxazin-7-yl)phenyl)urea]
8.00 to 9.00 | 8.00 to 9.00 | ≥ 8.00 | 6.30 to 7.00 |  | A (A≦0.1) | Cc1cc(N)nc(C)c1-c1ccc(NC(=O)Nc2cc(C(C)(C)C)on2)cc1 [Example 10, 1-(4-(6-amino-2,4-dimethylpyridin-3-yl)phenyl)-3-(5-tert-butylisoxazol-3-yl)urea]
≥ 9.00 | ≥ 9.00 | ≥ 8.00 | 8.00 to 9.00 |  | A (A≦0.1) | CC(C)(C)c1cc(NC(=O)Nc2ccc(-c3ccc(NCCN4CCOCC4)nc3)cc2)no1 [Example 7, 1-(5-tert-butyl-isoxazol-3-yl)-3-{4-[6-(2-morpholin-4-yl-ethylamino)-pyridin-3-yl]-phenyl}urea]
